Test results reported in patent publication US20170197938A1, “A QUINOLINE DERIVATIVE FOR THE TREATMENT OF INFLAMMATORY DISEASES AND AIDS” (ABIVAX, priority 2014, published 2017).

What was measured:
HIV-1 = experiment: Inhibition of HIV-1 production in infected PBMCs (p24 ELISA); type: cell-based; settings: Human immunodeficiency virus 1, PBMC, read-out: Activity (IC50)
Method: Within this framework, the peripheral blood mononuclear cells (PBMCs) of healthy donors are isolated by centrifugation on a FICOLL gradient. The cells are then activated two days to a density of 1.5×10^6 cells/ml in RPMI plutamax medium supplemented with 10% fetal calf serum (FCS), 40 U/ml of IL2 and 5 μg/ml PHA, in an incubator at 37° C., 5% CO2.
A standard experiment using 96 plates to test 30 molecules in triplicates including positive and negative controls, is performed as follows:
PHA/IL2 activated PBMCs are washed with RPMI 10% FCS and resuspended at 1.5×10^6 cells/ml in RPMI glutamax 10% FCS, 40 U/ml I12. The cells are seeded in 96 wells (1.5 10^5 cells/well/100 μl). Viral infection is performed with 1 ng of AdaM/well. 100 μl of tested molecules at concentration of 20 μM are added to each well (10 μM final concentration). Virus production is determined by p24 antigen immunosorbent assays after 3 and 6 days of infection (Kit Innogenetics). Typically PBMCs are prepared from several healthy donors (around 11 different donors). […]
The efficacy of compound of formula (1) and of compound no 1 as disclosed in document WO 2012/080953 is measured by the HIV-specific enzyme-linked immunosorbent assay, p24 ELISA.
Drug efficacy is expressed as percent inhibition of the HIV p24 antigen in this rapid and sensitive assay.

miR-124 = miR-124 expression in PBMCs treated with screened molecules (RT-qPCR, relative quantification); type: cell-based, human; settings: for Fold-change compared to DMSO treated cells, Mean (miR-124 expression): PBMCs of healthy donors, 6 days treatment, quinoline derivative 5 μM, antiretroviral drugs 10 μM, mean of 4 or 5 donors; for effect on miR-124 expression in PBMCs (in words): antiretrovirals in four donors
Method: For that purpose, Peripheral blood mononuclear cells (PBMCs) of several healthy donors have been isolated by centrifugation on a FICOLL™ gradient according to standard protocols.
Briefly, 60-70 mL of buffy-coat are poured in a flask of 175 cm^2, and the volume is adjusted to 300 mL using PBS in order to obtain a dilution of about 5-fold of the buffy cost. 38 mL of diluted Buffy are then added to Falcon™ tubes of 50 mL comprising 12 mL of FICOLL™ (Histopack-1077) at ambient temperature. The preparation is centrifugated for 30 minutes at 515 rcf at ambient temperature. The lymphocyte ring is recovered from the Falcon™ tube with a transfer pipette (Pastette®) and then washed with PBS using centrifugation for 10 minutes at 290 rcf and at ambient temperature until the supernatant becomes clear.
The cells are then resuspended at 37° C. to a density of 1.5×10^6 cells/mL in RPMI Glutamax medium (Life Technologies Ref 61870-010) supplemented with 10% fetal calf serum (FCS) (Thermo Fisher Ref SV30160.03) and without activation. Cells are incubated for 48 hours at 37° C. under 5% CO2.
Six-well plates are used for the screening. Within each well comprising 3.10^6 cell/4 ml RPMI supplemented with 10% fetal calf serum and 40 U/mL IL-2 (Peprotech Ref 200-02) are added screened molecules. 100% DMSO (4 μL) is added to the well and tested as a negative control.
Each tested condition is set up as described here below and the final corresponding volume is adjusted accordingly in the well: • 1) Quinoline derivative in 100% DMSO—(5 μM and final volume 4 μL) • 2) Antiretroviral drugs: Maraviroc, Efavirenz, Darunavir, AZT (10 μM for all—final volume 4 μL).
The wells are incubated for three days at 37° C. under 5% CO2. Medium is changed (Day 3) according to standard protocols. Briefly, plates are centrifugated at 290 rcf for 5 minutes and 3 mL of supernatant is removed. 3 mL of RPMI supplemented with 10% fetal calf serum and 40 U/mL IL-2 is then added with 3 μL of a stock solution of screened molecule at 5 mM in 100% DMSO or 3 μL of 100% DMSO as a negative control.
Cells are recovered within Falcon™ tubes of 15 mL, centrifugated at 290 rcf for 5 minutes, and then washed in 10 mL PBS and further centrifugated at 290 rcf for 5 minutes. Cells are then resuspended in 1 mL PBS and counted.
6×10^6 cells are recovered and centrifugated at 290 rcf for 5 minutes. The cell pellet is lysed in 300 μL of ML lysis buffer from the Macherey Nagel Nucleospin® miRNA extraction kit (Macherey Nagel Ref 740971), and further stored at −20° C.
5 μL of 2×10^8 copies/μL of spike-in control (Ce_miR-39 from QIAGEN®—reference 219610 of SEQ ID No 6) are added for each sample. The miRNA extraction is achieved using the protocol from Macherey Nagel Nucleospin® miRNA extraction kit using an elution volume for RNAs of 50 μL and miRNAs of 30 μL, and further stored at −20° C.
The reverse transcription step is followed for 12 μL of miRNA using the miScript RT II reverse transcription (RT) kit from QIAGEN® using the miScript HiSpec buffer, and further stored at −20° C.
The quantitative PCR step is achieved using the QIAGEN® miScript SYBR® Green PCR kit and miScript Primer Assays according to the manufacturer's protocol.
The reaction is repeated in triplicates in a 384-well plate according to the manufacturer's protocol on a LightCycler® […] Roche Real-Time PCR system. Cycling conditions are also set up according to the manufacturer's protocol:
From a dilution to the 1/10th in H2O for the miR-124 qPCR (Hs'miR-124a) or to the 1/100th for reference/housekeeping gene qPCR (Hs_miR-26a and Hs_miR-191, using miScript Primer Assays (Hs_miR-124a, Hs_miR-26a and Hs_miR-191 or QIAGEN®—references ms00006622, ms00029239 and ms00003682).
The analysis is achieved using relative quantification models without efficiency correction (2^−ΔΔCp) using the average of crossing points (Cp) values from triplicates of miR-124 and the average of the average of triplicates of miR-26a and miR-191. […]

Molecule: FC(F)(F)c1ccnc(Nc2ccc3c(OCCN4CCOCC4)ccc(Cl)c3n2)c1
- IC50 (HIV-1): 62.3 µM

Molecule: Cc1cn([C@H]2C[C@H](N=[N+]=[N-])[C@@H](CO)O2)c(=O)[nH]c1=O [AZT]
- Fold-change compared to DMSO treated cells, Mean (miR-124 expression) (miR-124): 0.90
- effect on miR-124 expression in PBMCs (in words) (miR-124): none of the known antiretroviral (Maraviroc, Effavirenz, Darunavir or AZT) has any significant effect

Molecule: FC(F)(F)c1ccnc(Nc2ccc3cc(OCCN4CCOCC4)cc(Cl)c3n2)c1 [Compound of formula (1), 8-chloro-6-(2-morpholinoethoxy)-N-(4-(trifluoromethyl)pyridin-2-yl)quinolin-2-amine]
- Fold-change compared to DMSO treated cells, Mean (miR-124 expression) (miR-124): 32.04
- effect on miR-124 expression in PBMCs (in words) (miR-124): up-regulate the expression levels of miR-124
- IC50 (HIV-1): 0.43 µM

Molecule: CC(C)CN(C[C@@H](O)[C@H](Cc1ccccc1)NC(=O)O[C@H]1CO[C@H]2OCC[C@H]21)S(=O)(=O)c1ccc(N)cc1 [Darunavir]
- Fold-change compared to DMSO treated cells, Mean (miR-124 expression) (miR-124): 1.08
- effect on miR-124 expression in PBMCs (in words) (miR-124): none of the known antiretroviral (Maraviroc, Effavirenz, Darunavir or AZT) has any significant effect

Molecule: O=C1Nc2ccc(Cl)cc2[C@@](C#CC2CC2)(C(F)(F)F)O1 [Effavirenz, Efavirenz]
- Fold-change compared to DMSO treated cells, Mean (miR-124 expression) (miR-124): 0.46
- effect on miR-124 expression in PBMCs (in words) (miR-124): none of the known antiretroviral (Maraviroc, Effavirenz, Darunavir or AZT) has any significant effect

Molecule: Maraviroc
- Fold-change compared to DMSO treated cells, Mean (miR-124 expression) (miR-124): 0.73
- effect on miR-124 expression in PBMCs (in words) (miR-124): none of the known antiretroviral (Maraviroc, Effavirenz, Darunavir or AZT) has any significant effect
